Measurements taken from patent US7387779B2, “Anti-angiogenic proteins and fragments and methods of use thereof” (Beth Israel Deaconess Medical Center, priority 1998, dated 2008).

Columns and labels:
PC3 tumor xenografts = assay: PC3 human prostate tumor xenograft (Example 58); assay type: in vivo, nude NCRNU mice; conditions: 5.0 mg/kg i.p. daily, 3 weeks; for Final Tumor Weight (V/Vo) ± SEM: T7 vehicle 5.626 ± 0.38, T8 vehicle 6.278 ± 1.483
Method: Male nude NCRNU mice, 5-6 weeks old, weighing approximately 25 grams, 6 were implanted with 2×10^6 PC3 cells into the dorsal subcutis. When the tumors were 60 mm^3, the animals were pair-matched into treatment and control groups. Each group contained 6-7 tumored mice, each of which was ear-tagged and followed individually throughout the experiment. Initial doses of peptide or vehicle control were given on the day of pair-matching (Day 0), and were administered via intraperitoneal (i.p.) injection at doses indicated. Mice were weighed weekly, and tumor measurements were taken by calipers weekly. These tumor measurements were converted to tumor volume by a well-known formula, (V=W^2×L/2), and mean tumor volumes were plotted against time. Mice were euthenized at the end of the treatment period. Upon termination, the mice were weighed, sacrificed and their tumors were excised. The mean tumor weight per group was calculated, and the value of mean treated tumor volume or volume ratio/mean control tumor volume or volume ratio×100 was subtracted from 100% to give the tumor growth inhibition (TG1) for each group. All groups received injections I.P. daily, except for two T8-treated groups, which were treated twice per week and once a week, respectively.

C-PAE cells [1] = assay: Cell attachment assay; assay type: cell-based, bovine; conditions: for attachment of endothelial cells onto vitronectin-coated plates in the presence of peptide: 5 μg/ml
Method: (§1) The attachment of HUVECs to Tumstatin-coated plates in the presence of integrin subunits α1 through α6, β1, and αvβ3 integrin blocking antibody was examined. This assay was performed according to the method of Senger et al. (Senger, D. R. et al, 1997, Proc. Natl. Acad. Sci. USA 94:13612-7), with minor modification. 96-well plates were coated with either human Tumstatin, mouse laminin-1, or human Type IV collagen (Collaborative Biomedical Prods., Bedford, Mass., USA) at a concentration of 10 μg/ml overnight at 37° C. Vitronectin (Collaborative Biomed. Prods.) at a concentration of 0.5 μg/ml was then used to coat the plates. The remaining protein binding sites were blocked with 100 mg/ml of BSA (Sigma Chemical Co., St. Louis, Mo., USA) in PBS for 2 hours. HUVEC cells were grown to subconfluence (70-80%) in EGM-2 medium, gently trypsinized and resuspended in serum-free medium (1.5×10^5 cells/ml). The cells were mixed with 10 μg/ml of either mouse IgG, (control) (Life Technologies/Gibco BRL, Gaithersberg, Md., USA) or antibody (mouse monoclonal antibody to the human β1 integrin (clone P4C10) (Life Technologies/Gibco BRL); monoclonal antibody to human integrins α1 through α.6 (CHEMICON Int'l, Temecula, Calif., USA); αvβ3 integrin (clone LM609) (CHEMICON Int'l) and incubated for 15 minutes at room temperature, with gentle agitation. One hundred microliters of the cell suspension was then added to each well and incubated for 45 minutes at 37° C. Unattached cells were removed by washing, and the number of attached cells were counted after staining with methylene blue. C-PAE cells were used in separate experiments, following the above procedure.
To determine the attachment of C-PAE cells to plates coated with the Tumstatin deletion mutants, the cell attachment assay was performed as described above (see, e.g., Example 28). Rabbit antibody raised against Tum-4 was prepared as previously described (Kalluri et al., 1997, J. Clin. Invest. 99:2470-8). Goat anti-rabbit IgG antibody conjugated with horseradish peroxidase was purchased from Sigma Chemical Company (St. Louis, Mo., USA). […] Plates coated with Tum-1 (FIG. 36A) were also treated with anti-Tum-4 antibody (1:200 dilution) to block the previously reported (Shahan et al, 1999, Cancer Res. 59:4584-90) αvβ3 binding site, as well as the αvβ5 binding site.
(§2) Cell Attachment Activity: Cell attachment using endothelial cells was performed as described above. HUVEC or C-PAE cells were incubated with monoclonal anti-human integrin antibodies, control mouse IgG (10 μg/ml), or synthetic peptide, plated onto pre-coated 96-well plates, and the number of cells attaching to the plates was determined using measurement of methylene blue staining at OD655. […] CNGRC peptide was used as a control.
(§3) The cell attachment assay was performed as described above.
Tumstatin produced in 293 human embryonic kidney cells was used to coat tissue culture plates. […] PBS and BSA served as positive and negative controls, respectively.

C-PAE cells [2] = assay: Endothelial cell proliferation, methylene blue staining; assay type: cell-based, bovine; conditions: for inhibition of endothelial cell proliferation by synthetic peptides: 10 μg/ml, 20% FCS
Method: A methylene blue staining test was also done. 3,100 cells were added to each well and treated as above, and cells were then counted using the method of Oliver et al. (Oliver, M. H. et al., 1989, J. Cell. Science 92:513-18). All wells were washed one time with […] of 1×PBS and the cells were fixed by adding […] of 10% formalin in neutral-buffered saline (Sigma Chemical Co., St. Louis, Mo., USA) for 30 minutes at room temperature. After formalin removal cells were stained with a solution of 1% methylene blue (Sigma Chemical Co.) in 0.01 M borate buffer (pH 8.5) for 30 minutes at room temperature. After removal of staining solution, the wells were washed 5 times with […] of 0.01 M borate buffer (pH 8.5). Methylene blue was extracted from the cells with […] of 0.1N HCi/ethanol (1:1 mixture) for 1 hour at room temperature. The amount of methylene blue staining was measured on a microplate reader (BioRad, Hercules, Calif., USA) using light absorbance at 655 nm wavelength.
In the methylene-blue staining method, 7000 cells were plated into each well of a 96-well plate, and treated as described above. Cells were then counted using the method of Oliver et al. (1989, J. Cell. Sci. 92:513-8). After 48 hours of treatment, all wells were washed with 100 μl of PBS, and the cells fixed with 10% formalin in neutral-buffered saline (Sigma Chemical Co., St. Louis, Mo., USA). The cells were then stained with 1% methylene blue (Sigma) in 0.01M borate buffer, pH 8.5. Wells were washed with 0.01M borate buffer, and the methylene blue extracted from the cells with 0.1N HCl/ethanol, and the absorbance measured in a microplate reader (Bio-Rad, Hercules, Calif., USA) at 655 nm. Polymyxin B (Sigma) at a final concentration of 5 μg/ml was used to inactivate endotoxin (Liu, S. et al., 1997, Clin. Biochem. 30:455-63).
Proliferation of endothelial cells (C-PAE cells) and WM-164 melanoma cells was assayed by methylene blue staining, as described above in Examples 25 and 34. The results are shown in FIGS. 33A and 33B, which are a pair of graphs showing the effect of increasing concentration (x-axis) of Tumstatin, Tum-1, Tum-2, Tum-3 and Tum-4 on the relative number (y-axis) of C-PAE cells (FIG. 33A) and WM-164 cells (FIG. 33B). […] Tum-4, however, did have anti-proliferative activity in this cell line. […] Only Tum-4 inhibited WM-164 melanoma cells.
For the proliferation assay, Canstatin, Can-1 and Can-2 soluble proteins (0.1-20.0 μg/ml) were added to the growth medium of proliferating C-PAE cells, which were stimulated with 10% FBS in DMEM, in addition to 5 ng/ml bFGF and 3 ng/ml VEGF. The results are shown in FIG. 40, which is a graph showing the effect of increasing concentrations of Canstatin (♦), Can-1 (▪) and Can-2 (▴) (x-axis) on the relative cell number (y-axis) of C-PAE cells. Each concentration of each protein was tested in quadruplicate. Bovine serum albumin (BSA) was used as a control treatment. Polymyxin B was used to control for endotoxin interference, and no differences were found between assays run with and without polymyxin B added to the medium. Cells were allowed to proliferate for 48 hours, and were then fixed, stained and the density read with a Bio-Rad plate reader (Bio-Rad, Hercules, Calif., USA). Canstatin and Can-1 both caused dose-dependent decreases in the percent cell number, and both reduced the number of cells by 80% at concentrations of 5 μg/ml and higher.
An endothelial cell proliferation assay was used to compare the activity of Tumstatin and some of the deletion mutants. Recombinant Tumstatin (28 kDa), Tumstatin-44-131 (12 kDa) and T3 peptide were used in a methylene blue proliferation assay in equimolar concentrations.

C-PAE cells [3] = assay: Cell cycle analysis (propidium iodide, flow cytometry); assay type: cell-based, bovine
Method: To further evaluate the mechanism of T3 peptide on endothelial cell proliferation, the effect of T3 peptide on cell cycle progression was analyzed. In the growth arrested and contact inhibited cells (0 hour), 4.1% of cells were in S phase. […] This was true even at a maximal dosage of 100 μg/ml. The effect of the T3 peptide was dose-dependent, however, with the percentage of cells in S phase at 21.4% at 10 μg/ml, and 20.5% at 25 μg/ml. The percentage of cells in G0/G1 phase was 88.3% at 0 hour, 53.4% for the bFGF control, and 57.6%, 57.6% and 71.0% for treatments with T1, T6 and T3 peptide, respectively. […] Apoptotic Activity: Peptides T2, T3, T4, T5 and T6 (10 μg/ml concentration) were tested for their effect of viability of C-PAE cells using the MTT assay, as described in Examples 32 and 36 above. The results are shown in FIG. 43D, which is a histogram showing cell viability as measured at OD595 (y-axis), and treatments with the synthetic peptides (x-axis). […] TNF-α (100 ng/ml) was used to serve as a positive control in inducing endothelial cell apoptosis.
The effect of Tumstatin-44-131 and Tum-5-125-C-A on the cell cycle were assayed similarly to Example 4 above. Briefly, C-PAE cells were growth arrested by contact inhibition for 48 hours. The cells, at 10^5 cells per well, were then harvested and plated into a 12-well plate coated with fibronectin in 5% FCS and either recombinant Tumstatin-44-131 or Tum-5-125-C-A. After 21 hours, the cells were harvested and fixed in 70% ice-cold ethanol. The fixed cells were rehydrated a room temperature for 30 minutes in PBS containing 2% FCS and 0.1% Tween-20, centrifuged and resuspended in 0.5 ml of the same buffer. RNase (5 μg/ml) digestion was done at 37° C. for one hour, followed by staining with propidium iodide (5 μg/ml). The cells were then counted using an EPICS XL-MCL flow cytometer (Beckman-Coulter Instruments, Fullerton, Calif., USA).

HUVEC cells = assay: Cell adhesion assay with integrin blocking antibodies; assay type: cell-based, human; conditions: label = plate coating; 10 μg/ml antibody
Method: as §1, §2, §3

In the case of “ANMSRNVFFDCTSFPVCQKFLNDTRNY (Scrambled peptide SP1) [reference compound]”, the “% Tumor growth inhibition” value (PC3 tumor xenografts) is reported as 31.7% and the “Final Tumor Weight (V/Vo) ± SEM” value (PC3 tumor xenografts) is reported as 4.284 ± 1.244.

“CDCRGDCFC (synthetic blocking peptide) [reference compound]” was tested, and the “attachment of endothelial cells onto vitronectin-coated plates in the presence of peptide” value (C-PAE cells [1]) was “inhibited attachment”.

“CNGRC (synthetic blocking peptide) [reference compound]” was tested, and the “attachment of endothelial cells onto vitronectin-coated plates in the presence of peptide” value (C-PAE cells [1]) was “did not show such inhibition”.

In the case of “DVCNFASRNDYSYWLSTPAL (T4 (amino acids 83-102 of SEQ ID NO10))”, the “inhibition of endothelial cell proliferation by synthetic peptides” value (C-PAE cells [2]) is reported as “no inhibitory activity”.

“NQRAHGQDLGTLGSCLQRFT (T2 (amino acids 53-72 of SEQ ID NO10))” was tested, and the “inhibition of endothelial cell proliferation by synthetic peptides” value (C-PAE cells [2]) was “nor did it inhibit endothelial cell proliferation”.

For “RALEPYISRCTVCEGPAIA (T6 (amino acids 113-131 of SEQ ID NO10))”, the “percentage of cells in S phase” value (C-PAE cells [3]; bFGF 24 hours (control 22.1%), T1 or T6, maximal dosage of 100 μg/ml) was 21.2%, the “percentage of cells in G0/G1 phase” value (C-PAE cells [3]; bFGF control 53.4%) was 57.6% and the “binding to vitronectin-coated plates (2.5 μg/ml) in the presence of peptide” value (C-PAE cells [1]; 0.1, 1.0, 10.0 μg/ml peptide) was “did not inhibit attachment”.

With TMPFLFCNVNDVCNFASRNDYSYWL [T7] the EC50 (C-PAE cells [2]; equimolar comparison, read-out: ED50, anti-proliferative effect) was 1000 nM, the “% Tumor growth inhibition” value (PC3 tumor xenografts) was 66.8% and the “Final Tumor Weight (V/Vo) ± SEM” value (PC3 tumor xenografts) was 1.868 ± 0755.

With “laminin-1: mouse laminin-1, control plate coating [reference compound]” the “inhibition of HUVEC attachment to coated plates by α5 antibody” value (HUVEC cells) was 50% and the “inhibition of HUVEC attachment to coated plates by α6 antibody” value (HUVEC cells) was 89%.

B1: vitronectin: control plate coating (protein)
chain: DQESCKGRCTEGFNVDKKCQCDELCSYYQSCCTDYTAECKPQVTRGDVFTMPEDEYTVYDDGEEKNNATVHEQVGGPSLTSDLQAQSKGNPEQTPVLKPEEEAPAPEVGASKPEGIDSRPETLHPGRPQPPAEEELCSGKPFDAFTDLKNGSLFAFRGQYCYELDEKAVRPGYPKLIRDVWGIEGPIDAAFTRINCQGKTYLFKGSQYWRFEDGVLDPDYPRNISDGFDGIPDNVDAALALPAHSYSGRERVYFFKGKQYWEYQFQHQPSQEECEGSSLSAVFEHFAMMQRDSWEDIFELLFWGRTSAGTRQPQFISRDWHGVPGQVDAAMAGRIYISGMAPRPSLAKKQRFRHRNRKGYRSQRGHSRGRNQNSRRPSRATWLSLFSSEESNLGANNYDDYRMDWLVPATCEPIQSVFFFSGDKYYRVNLRTRRVDTVDPPYPRSIAQYWLGCPAPGHL
In the case of B1, the “inhibition of HUVEC attachment to coated plates by αvβ3 antibody” value (HUVEC cells) is reported as 61%.

B2: Tum-5: residues 54 to 132 of Tumstatin (SEQ ID NO:26) (protein)
chain: QRAHGQDLGTLGSCLQRFTTMPFLFCNVNDVCNFASRNDYSYWLSTPALMPMNMAPITGRALEPYISRCTVCEGPAIAI
modifications: Tum-5 (amino acids 54-132 of SEQ ID NO10)
In the case of B2, the “inhibition of HUVEC attachment to coated plates by αvβ3 antibody” value (HUVEC cells) is reported as “significantly inhibited” and the “attachment to coated plates in the presence of RGD peptide ([…])” value (C-PAE cells [1]; label = plate coating) is reported as “not inhibited”.
